The source of these data is patent publication US9623023B2, “Class of non-stimulant treatment and ADHD and related disorders” (The Florida State University Research Foundation, …, priority 2012, dated 2017).

Entries after “also recorded” stand apart in the source; their conditions may differ.

One data set deals with PFC dopamine turnover. The conditions noted are these: PNE mice; MPH administration; Zhu 2012; cited from earlier work.
The subject of data set [1] is PNE mice. As to the kind of experiment: Locomotor activity (hyperactivity) in prenatal nicotine exposure (PNE) mouse model. Particulars: oral. The data set is classed as in vivo.
Data set [2] deals with PNE mice. The conditions noted are these: active phase (lights off), Zhu 2012; cited from earlier work.
Data set [3] has as its system hyperactivity in children. The conditions noted are these: oral, dose range 0.5-2 mg/kg; previous reports; cited from earlier work.
The conditions of data set [4]: long-term usage; Recant 1980; cited from earlier work.
The next data set deals with SHR rats. In words: Locomotor activity (hyperactivity) in spontaneously hypertensive rat (SHR) ADHD model. Type of data set: in vivo. Here is the method: (§1) Spontaneously hypertensive rat (SHR) as an ADHD model. The SHR is a spontaneously occurring mutation associated with hypertension. […] Thus, both the SHR and the PNE mouse model show hyperactivity and increased frontal cortical KOPR activity. The selective KOPR antagonist, nor-BNI (10 mg/kg, i.p.) or the saline vehicle were administered to 60-day old SHR and WKY control rats (Sagvolden et al., 2009 (Reference 56)) at 17:00 hr and locomotor activity measured at hourly intervals over the next 19 hr (FIGS. 4 and 5). […] Since the hyperactivity in the SHR rat was evident during the lights off period from 19:00 hr to 7:00 hr, activity was compared during the lights off period between SHR rats receiving nor-BNI and those receiving saline.
The long-lasting effects of nor-BNI in the SHR is consistent with previous reports that the desensitization of the KOPR produced by nor-BNI lasts for up to 21 days (Metcalf and Coop, 2005 (Reference 43); Patkar et al., 2013 (Reference 48)).

Another data set relates to KOPR. The conditions noted are these: previous reports (Metcalf and Coop 2005; Patkar 2013); cited from earlier work.
The next data set has as its system WKY control rats. In words: Locomotor activity in WKY control rats. The data set is classed as in vivo, rat. The conditions noted are these: 10 mg/kg i.p. On the procedure:
as §1

`COC(=O)C(c1ccccc1)C1CCCCN1` (stereo not drawn) [MPH, methylphenidate]: the PFC dopamine turnover result in the data set on PFC dopamine turnover is “increases PFC dopamine turnover”. The locomotor activity entry in the data set with PNE mice [1] (PNE mice, MPH 0.75 mg/kg, FIG. 2 graph 204) is given as “significantly decreased locomotor activity”. In addition, the “locomotor activity after single oral administration” value in the data set with PNE mice [2] is given as “reduces the activity to the levels seen in drug naïve control mice”.
As to `O=C1CC[C@@]2(O)[C@H]3Cc4ccc(O)c5c4[C@@]2(CCN3CC2CC2)[C@H]1O5` [naltrexone], the hyperactivity in children entry in data set [3] is recorded as “effective in reducing hyperactivity”. The “locomotor activity compared to vehicle” value in the data set on PNE mice [1] (P60 male PNE mice, naltrexone 1 mg/kg, at 19:00 hrs, FIG. 2 graph 202) is listed as “significantly reduces locomotor activity; also recorded: reduces hyperactivity in PNE mice in a manner comparable to that of methylphenidate”. Besides, the weight gain result in data set [4] is “reduced weight gain”.
`Oc1ccc2c3c1O[C@H]1c4[nH]c5c(c4C[C@@]4(O)[C@@H](C2)N(CC2CC2)CC[C@]314)C[C@@]1(O)[C@H]2Cc3ccc(O)c4c3[C@@]1(CCN2CC1CC1)[C@H]5O4` [nor-BNI, nor-binaltorphimine]: the “locomotor activity during lights off period (Mean±SEM beam breaks)” value in the data set on SHR rats (60-day old SHR, 10 mg/kg i.p. at 17:00 hr, lights off 19:00-7:00 hr, saline=4830.75±609.2, p=0.04) is on record as 2743.25±945.8 beam breaks; in the data set on WKY control rats (60-day old WKY control rats, saline=2604.5±608.1, p>0.05), 2494.75±831.6 beam breaks. Besides, the “effect on locomotor activity compared to saline” value in the data set on SHR rats (SHR, 10 mg/kg i.p., FIG. 4) is “reduced the locomotor activity”. Further, the “period over which decrease in hyperactivity was observed” value with SHR rats (SHR, single i.p. injection 10 mg/kg) is listed as 21 days. Further, the “duration of desensitization of the KOPR” value with KOPR is on record as “up to 21 days”. In the data set on WKY control rats (WKY control rats, FIG. 5), the “effect on locomotor activity” value is “did not affect locomotor activity”.
